Source: article PMC4620497 (Scientific Reports, 2015)

Experiments:
PKN2 = target: T1, PKN2 (Homo sapiens, UniProt Q16513); experiment: KINOMEscan panel screen; format: binding; settings: read-out: Percent Control(%)
T1 construct: purchased DiscoveRx KINOMEscan (Ambit Biosciences)

HIPK4 = target: T2, HIPK4 (Homo sapiens, UniProt Q8NE63); experiment: KINOMEscan panel screen; format: binding; settings: read-out: Percent Control(%)
T2 construct: purchased DiscoveRx KINOMEscan (Ambit Biosciences)

DMPK = target: T3, DMPK (Homo sapiens, UniProt Q09013); experiment: KINOMEscan panel screen; format: binding; settings: read-out: Percent Control(%)
T3 construct: purchased DiscoveRx KINOMEscan (Ambit Biosciences)
T3 sequence (Q09013 1-629): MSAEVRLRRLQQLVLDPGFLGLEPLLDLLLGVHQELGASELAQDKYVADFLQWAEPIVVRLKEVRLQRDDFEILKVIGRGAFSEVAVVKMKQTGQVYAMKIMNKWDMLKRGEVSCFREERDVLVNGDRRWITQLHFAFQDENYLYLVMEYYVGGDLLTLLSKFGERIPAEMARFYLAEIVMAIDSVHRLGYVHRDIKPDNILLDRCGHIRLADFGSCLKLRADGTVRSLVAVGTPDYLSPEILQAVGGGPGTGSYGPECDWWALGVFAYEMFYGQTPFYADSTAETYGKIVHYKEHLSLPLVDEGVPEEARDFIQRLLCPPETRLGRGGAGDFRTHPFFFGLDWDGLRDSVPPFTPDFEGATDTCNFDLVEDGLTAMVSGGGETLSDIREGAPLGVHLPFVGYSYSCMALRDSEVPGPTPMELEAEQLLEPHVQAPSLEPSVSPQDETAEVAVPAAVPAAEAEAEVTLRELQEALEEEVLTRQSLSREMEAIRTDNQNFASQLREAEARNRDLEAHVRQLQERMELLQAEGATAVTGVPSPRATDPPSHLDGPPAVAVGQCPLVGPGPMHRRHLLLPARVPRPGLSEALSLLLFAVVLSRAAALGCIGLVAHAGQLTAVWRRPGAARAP

normal PBMCs = experiment: Long-term culture-initiating cell (LTC-IC) assay; format: cell-based, human; settings: 10 nM and 50 nM
Experimental: (§1) In addition to the SP cell assay, we also evaluated the effects of SKLB-677 on the long-term culture-initiating (LTC-IC) cells; the long-term culture of LTC-IC cells can be used as surrogate markers of self-renewal capacity. SKLB-677 treated primary AML PBMCs or normal PBMCs were co-cultured with M2-10B4 stromal cells for 6 weeks, and then the colony formation capacity of LTC-IC cells were determined. In this assay, three primary AML PBMC samples and three normal PBMC samples were included, and each sample was conducted in triplicate.
(§2) PBMCs from AML patients (n = 3) and normal people (n = 3) were plated on M2-10B4 feeder cell layers (irradiated with 8000cGy) established in 6-well plates in HLTM medium (Myelocult H5100, […]) freshly supplemented with 10^−6 M hydrocortisone ([…]). Cultures were maintained with 0.1% DMSO or SKLB-677 for […] with weekly half-media changes, before seeding harvested cells into Colony-forming unit assays (cells were seeded in ultra-low attachment 6-well plates (Corning) in triplicate with the complete MethoCult Media ([…]) for 14 days). The assay for each sample was performed in triplicate. The colonies were counted under a microscope, and an obvious and visible cell cluster was considered a colony. The representative images were taken on an Axiovert 200 microscope with an AxiocamMRm camera with 0.30 aperture. Image acquisition software: AxioVisionRell 4.8.
(§3) Figure 4 The in vitro effects of SKLB-677 on leukemia side population (SP) cells and leukemia-initiating cells (LICs). (a) MV4-11 cells were stained with Hoechst 33342 after a treatment of SKLB-677 for 12 h. […] (b) The separated PBMCs were incubated on M2-10B4 stromal cells with SKLB-677 (1 nM and 10 nM for primary AML PBMCs, 10 nM and 50 nM for normal PBMCs) and/or 0.1% DMSO and then half medium replaced weekly for six weeks in long-term culture-initiating cells (LTC-IC) assays. Representative CAFCs (cobble stone area forming cells, the clusters of LTC-IC cells) are shown (left, black arrows).

primary AML PBMCs = experiment: Long-term culture-initiating cell (LTC-IC) assay; format: cell-based, human
Experimental: as §1, §2, §3

CDKL1 = target: T4, CDKL1 (Homo sapiens, UniProt Q00532); experiment: KINOMEscan panel screen; format: binding; settings: read-out: Percent Control(%)
T4 construct: purchased DiscoveRx KINOMEscan (Ambit Biosciences)

TTK = target: T5, TTK (Homo sapiens, UniProt P33981); experiment: KINOMEscan panel screen; format: binding; settings: read-out: Percent Control(%)
T5 construct: purchased DiscoveRx KINOMEscan (Ambit Biosciences)

LIMK1 = target: T6, LIMK1 (Homo sapiens, UniProt P53667); experiment: KINOMEscan panel screen; format: binding; settings: read-out: Percent Control(%)
T6 construct: purchased DiscoveRx KINOMEscan (Ambit Biosciences)
T6 sequence (P53667 whole entry): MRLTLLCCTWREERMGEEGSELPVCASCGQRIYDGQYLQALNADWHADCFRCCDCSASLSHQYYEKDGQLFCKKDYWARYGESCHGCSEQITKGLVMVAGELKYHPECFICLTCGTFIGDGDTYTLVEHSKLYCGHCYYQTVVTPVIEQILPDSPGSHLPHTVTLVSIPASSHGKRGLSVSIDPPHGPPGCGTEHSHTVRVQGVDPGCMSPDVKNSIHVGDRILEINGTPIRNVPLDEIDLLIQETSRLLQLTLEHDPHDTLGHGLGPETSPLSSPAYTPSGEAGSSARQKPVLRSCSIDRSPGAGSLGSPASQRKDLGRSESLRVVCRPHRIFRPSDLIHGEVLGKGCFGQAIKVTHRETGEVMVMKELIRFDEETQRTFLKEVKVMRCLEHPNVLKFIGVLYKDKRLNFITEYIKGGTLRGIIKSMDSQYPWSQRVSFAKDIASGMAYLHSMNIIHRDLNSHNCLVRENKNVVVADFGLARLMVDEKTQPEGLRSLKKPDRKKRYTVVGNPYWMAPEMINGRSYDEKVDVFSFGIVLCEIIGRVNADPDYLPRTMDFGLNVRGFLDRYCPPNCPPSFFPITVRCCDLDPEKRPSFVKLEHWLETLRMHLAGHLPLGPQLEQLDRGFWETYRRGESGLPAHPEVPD

NLK = target: T7, NLK (Homo sapiens, UniProt Q9UBE8); experiment: KINOMEscan panel screen; format: binding; settings: read-out: Percent Control(%)
T7 construct: purchased DiscoveRx KINOMEscan (Ambit Biosciences)

PFCDPK1(P.falciparum) = target: T8, PFCDPK1(P.falciparum) (Plasmodium falciparum, UniProt P62344); experiment: KINOMEscan panel screen; format: binding; settings: read-out: Percent Control(%)
T8 construct: purchased DiscoveRx KINOMEscan (Ambit Biosciences)
T8 sequence (P62344 whole entry): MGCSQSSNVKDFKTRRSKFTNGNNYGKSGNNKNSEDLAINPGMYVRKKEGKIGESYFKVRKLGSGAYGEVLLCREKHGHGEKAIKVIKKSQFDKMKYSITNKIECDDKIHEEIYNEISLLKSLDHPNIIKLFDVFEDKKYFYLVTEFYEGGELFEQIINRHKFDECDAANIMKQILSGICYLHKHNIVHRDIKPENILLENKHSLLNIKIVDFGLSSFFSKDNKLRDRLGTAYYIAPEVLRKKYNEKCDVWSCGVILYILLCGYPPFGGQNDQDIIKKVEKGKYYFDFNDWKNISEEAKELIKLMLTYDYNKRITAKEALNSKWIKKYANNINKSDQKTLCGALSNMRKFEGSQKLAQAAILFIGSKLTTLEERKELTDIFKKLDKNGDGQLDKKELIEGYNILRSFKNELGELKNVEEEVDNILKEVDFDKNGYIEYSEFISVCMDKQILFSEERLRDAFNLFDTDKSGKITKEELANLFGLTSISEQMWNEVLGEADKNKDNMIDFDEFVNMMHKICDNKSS

MLCK = target: T9, MLCK (Homo sapiens, UniProt Q32MK0); experiment: KINOMEscan panel screen; format: binding; settings: read-out: Percent Control(%)
T9 construct: purchased DiscoveRx KINOMEscan (Ambit Biosciences)

TYRO3 = target: T10, TYRO3 (Homo sapiens, UniProt Q06418); experiment: KINOMEscan panel screen; format: binding; settings: read-out: Percent Control(%)
T10 construct: purchased DiscoveRx KINOMEscan (Ambit Biosciences)
T10 sequence (Q06418 41-890): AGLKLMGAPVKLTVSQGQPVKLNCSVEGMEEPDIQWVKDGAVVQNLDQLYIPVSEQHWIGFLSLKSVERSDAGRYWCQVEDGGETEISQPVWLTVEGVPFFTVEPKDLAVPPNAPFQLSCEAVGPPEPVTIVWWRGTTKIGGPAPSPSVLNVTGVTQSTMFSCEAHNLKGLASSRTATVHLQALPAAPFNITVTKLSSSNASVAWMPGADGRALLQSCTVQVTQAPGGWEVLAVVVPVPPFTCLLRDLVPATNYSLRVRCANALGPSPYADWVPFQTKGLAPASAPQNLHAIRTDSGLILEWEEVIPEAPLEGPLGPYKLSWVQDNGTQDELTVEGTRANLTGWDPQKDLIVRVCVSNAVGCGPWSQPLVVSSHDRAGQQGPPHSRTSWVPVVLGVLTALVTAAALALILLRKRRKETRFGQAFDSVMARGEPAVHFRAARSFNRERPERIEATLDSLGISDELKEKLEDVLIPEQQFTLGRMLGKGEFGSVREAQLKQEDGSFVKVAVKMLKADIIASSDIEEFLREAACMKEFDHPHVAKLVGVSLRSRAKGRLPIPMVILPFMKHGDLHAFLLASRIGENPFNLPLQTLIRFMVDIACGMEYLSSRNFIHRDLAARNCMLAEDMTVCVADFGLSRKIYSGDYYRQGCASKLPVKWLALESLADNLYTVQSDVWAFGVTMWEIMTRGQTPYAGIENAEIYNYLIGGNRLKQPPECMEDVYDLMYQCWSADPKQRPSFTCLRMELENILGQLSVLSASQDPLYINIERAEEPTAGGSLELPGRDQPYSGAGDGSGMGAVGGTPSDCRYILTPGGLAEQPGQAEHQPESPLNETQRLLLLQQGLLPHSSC

SNRK = target: T11, SNRK (Homo sapiens, UniProt Q9NRH2); experiment: KINOMEscan panel screen; format: binding; settings: read-out: Percent Control(%)
T11 construct: purchased DiscoveRx KINOMEscan (Ambit Biosciences)
T11 sequence (Q9NRH2 whole entry): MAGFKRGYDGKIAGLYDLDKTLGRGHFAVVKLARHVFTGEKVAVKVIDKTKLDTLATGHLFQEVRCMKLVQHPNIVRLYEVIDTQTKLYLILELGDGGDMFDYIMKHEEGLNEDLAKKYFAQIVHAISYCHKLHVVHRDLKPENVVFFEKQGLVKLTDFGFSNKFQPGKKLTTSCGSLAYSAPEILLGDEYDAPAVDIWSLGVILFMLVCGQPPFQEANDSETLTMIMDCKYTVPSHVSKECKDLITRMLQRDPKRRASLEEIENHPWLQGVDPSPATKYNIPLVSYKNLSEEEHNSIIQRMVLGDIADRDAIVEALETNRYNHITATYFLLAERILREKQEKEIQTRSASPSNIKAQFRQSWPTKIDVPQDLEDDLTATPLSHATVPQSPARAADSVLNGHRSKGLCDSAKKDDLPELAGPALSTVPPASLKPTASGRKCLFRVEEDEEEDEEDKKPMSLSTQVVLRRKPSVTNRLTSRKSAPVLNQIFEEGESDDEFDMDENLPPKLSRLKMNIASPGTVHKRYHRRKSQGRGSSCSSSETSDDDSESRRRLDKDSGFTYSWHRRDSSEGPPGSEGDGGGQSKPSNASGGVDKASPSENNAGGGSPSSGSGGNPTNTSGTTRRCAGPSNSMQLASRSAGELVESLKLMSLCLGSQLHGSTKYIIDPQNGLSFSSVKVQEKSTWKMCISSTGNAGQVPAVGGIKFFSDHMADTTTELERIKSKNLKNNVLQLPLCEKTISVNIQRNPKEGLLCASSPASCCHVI

IRAK4 = target: T12, IRAK4 (Homo sapiens, UniProt Q9NWZ3); experiment: KINOMEscan panel screen; format: binding; settings: read-out: Percent Control(%)
T12 construct: purchased DiscoveRx KINOMEscan (Ambit Biosciences)

MARK3 = target: T13, MARK3 (Homo sapiens, UniProt P27448); experiment: KINOMEscan panel screen; format: binding; settings: read-out: Percent Control(%)
T13 construct: purchased DiscoveRx KINOMEscan (Ambit Biosciences)

FAK = target: T14, FAK (Homo sapiens, UniProt Q05397); experiment: KINOMEscan panel screen; format: binding; settings: read-out: Percent Control(%)
T14 construct: purchased DiscoveRx KINOMEscan (Ambit Biosciences)

ZAK = target: T15, ZAK (Homo sapiens, UniProt Q9NYL2); experiment: KINOMEscan panel screen; format: binding; settings: read-out: Percent Control(%)
T15 construct: purchased DiscoveRx KINOMEscan (Ambit Biosciences)
T15 sequence (Q9NYL2 whole entry): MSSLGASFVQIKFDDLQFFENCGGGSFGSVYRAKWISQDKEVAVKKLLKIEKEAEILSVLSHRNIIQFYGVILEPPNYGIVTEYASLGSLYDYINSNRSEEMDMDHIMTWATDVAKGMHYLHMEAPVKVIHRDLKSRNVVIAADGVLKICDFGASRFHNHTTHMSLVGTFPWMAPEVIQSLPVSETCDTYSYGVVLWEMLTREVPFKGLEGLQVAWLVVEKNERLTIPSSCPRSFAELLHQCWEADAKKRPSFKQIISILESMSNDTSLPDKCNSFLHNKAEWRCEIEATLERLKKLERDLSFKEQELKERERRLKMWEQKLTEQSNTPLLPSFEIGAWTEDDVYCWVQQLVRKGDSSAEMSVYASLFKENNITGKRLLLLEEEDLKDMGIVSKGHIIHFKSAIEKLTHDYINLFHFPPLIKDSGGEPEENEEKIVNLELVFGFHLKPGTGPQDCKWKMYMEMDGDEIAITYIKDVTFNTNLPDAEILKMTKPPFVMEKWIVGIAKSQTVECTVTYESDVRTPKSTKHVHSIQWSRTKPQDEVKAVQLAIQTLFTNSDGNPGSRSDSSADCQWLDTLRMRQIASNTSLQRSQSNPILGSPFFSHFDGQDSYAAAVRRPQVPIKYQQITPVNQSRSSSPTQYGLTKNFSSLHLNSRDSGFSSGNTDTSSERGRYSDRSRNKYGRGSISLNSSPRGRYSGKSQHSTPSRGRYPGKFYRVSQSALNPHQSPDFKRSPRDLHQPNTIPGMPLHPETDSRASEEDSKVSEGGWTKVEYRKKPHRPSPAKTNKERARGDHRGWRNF

NEK11 = target: T16, NEK11 (Homo sapiens, UniProt Q8NG66); experiment: KINOMEscan panel screen; format: binding; settings: read-out: Percent Control(%)
T16 construct: purchased DiscoveRx KINOMEscan (Ambit Biosciences)

BTK = BTK (Homo sapiens, UniProt Q06187); experiment: KINOMEscan panel screen; format: binding; settings: read-out: Percent Control(%)
Sequence of BTK (Q06187 whole entry): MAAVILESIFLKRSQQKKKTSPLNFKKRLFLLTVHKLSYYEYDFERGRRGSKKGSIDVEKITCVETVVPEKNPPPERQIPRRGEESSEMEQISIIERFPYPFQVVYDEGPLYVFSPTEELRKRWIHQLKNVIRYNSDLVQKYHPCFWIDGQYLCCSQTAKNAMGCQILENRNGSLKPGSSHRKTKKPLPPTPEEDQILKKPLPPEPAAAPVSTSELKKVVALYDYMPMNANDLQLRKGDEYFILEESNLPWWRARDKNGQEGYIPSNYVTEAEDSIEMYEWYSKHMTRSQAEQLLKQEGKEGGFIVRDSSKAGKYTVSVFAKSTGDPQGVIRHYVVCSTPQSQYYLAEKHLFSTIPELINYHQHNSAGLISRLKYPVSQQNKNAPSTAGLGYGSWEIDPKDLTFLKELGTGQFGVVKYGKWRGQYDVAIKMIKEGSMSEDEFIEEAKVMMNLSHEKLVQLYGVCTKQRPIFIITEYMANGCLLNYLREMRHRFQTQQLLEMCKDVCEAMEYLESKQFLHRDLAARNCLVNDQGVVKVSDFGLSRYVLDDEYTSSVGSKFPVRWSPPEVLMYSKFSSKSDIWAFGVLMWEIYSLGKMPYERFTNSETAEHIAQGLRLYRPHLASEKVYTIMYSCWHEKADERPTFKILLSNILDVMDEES

SGK2 = target: T17, SGK2 (Homo sapiens, UniProt Q9HBY8); experiment: KINOMEscan panel screen; format: binding; settings: read-out: Percent Control(%)
T17 construct: purchased DiscoveRx KINOMEscan (Ambit Biosciences)

DCAMKL2 = target: T18, DCAMKL2 (Homo sapiens, UniProt Q8N568); experiment: KINOMEscan panel screen; format: binding; settings: read-out: Percent Control(%)
T18 construct: purchased DiscoveRx KINOMEscan (Ambit Biosciences)

DMPK2 = target: T19, DMPK2 (Homo sapiens, UniProt Q6DT37); experiment: KINOMEscan panel screen; format: binding; settings: read-out: Percent Control(%)
T19 construct: purchased DiscoveRx KINOMEscan (Ambit Biosciences)

TNK2 = target: T20, TNK2 (Homo sapiens, UniProt Q07912); experiment: KINOMEscan panel screen; format: binding; settings: read-out: Percent Control(%)
T20 construct: purchased DiscoveRx KINOMEscan (Ambit Biosciences)

ERK5 = target: T21, ERK5 (Homo sapiens, UniProt Q13164); experiment: KINOMEscan panel screen; format: binding; settings: read-out: Percent Control(%)
T21 construct: purchased DiscoveRx KINOMEscan (Ambit Biosciences)

T2 sequence (Q8NE63 whole entry): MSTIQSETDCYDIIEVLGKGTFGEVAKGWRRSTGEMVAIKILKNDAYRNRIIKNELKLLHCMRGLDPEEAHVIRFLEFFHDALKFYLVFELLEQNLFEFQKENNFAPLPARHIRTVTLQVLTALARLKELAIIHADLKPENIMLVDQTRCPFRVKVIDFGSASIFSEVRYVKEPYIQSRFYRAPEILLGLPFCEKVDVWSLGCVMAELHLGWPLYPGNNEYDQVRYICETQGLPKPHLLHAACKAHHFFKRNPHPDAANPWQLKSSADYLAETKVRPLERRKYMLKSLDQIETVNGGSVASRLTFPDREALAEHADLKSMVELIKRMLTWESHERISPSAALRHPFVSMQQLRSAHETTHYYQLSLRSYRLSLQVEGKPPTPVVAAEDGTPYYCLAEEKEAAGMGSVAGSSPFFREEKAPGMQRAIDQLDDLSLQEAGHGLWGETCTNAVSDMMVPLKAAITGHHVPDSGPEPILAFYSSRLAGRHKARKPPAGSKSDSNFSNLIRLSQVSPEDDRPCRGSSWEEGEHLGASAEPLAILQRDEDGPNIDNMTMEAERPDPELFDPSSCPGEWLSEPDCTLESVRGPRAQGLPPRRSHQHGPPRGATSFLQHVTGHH

CC(C)(C)c1cc(NC(=O)Nc2ccc(Oc3ncnc4[nH]ncc34)c(F)c2)no1 [SKLB-677, 1-(4-(1H-pyrazolo[3,4-d]pyrimidin-4-yloxy)-3-fluorophenyl)-3-(5-tert-butylisoxazol-3-yl)urea]
remaining binding at 10 µM (PKN2): 100%
remaining binding at 10 µM (HIPK4): 0.45%
remaining binding at 10 µM (DMPK): 100%
average LTC-IC colony numbers of three normal PBMC samples (normal PBMCs): almost not changed
average LTC-IC colony numbers of three samples compared with control (primary AML PBMCs; 1 nM): 30%
average LTC-IC colony numbers of three samples compared with control (primary AML PBMCs; 10 nM): 10%
remaining binding at 10 µM (CDKL1): 3.3%
remaining binding at 10 µM (TTK): 17%
remaining binding at 10 µM (LIMK1): 25%
remaining binding at 10 µM (NLK): 1.2%
remaining binding at 10 µM (PFCDPK1(P.falciparum)): 26%
remaining binding at 10 µM (MLCK): 58%
remaining binding at 10 µM (TYRO3): 0.35%
remaining binding at 10 µM (SNRK): 100%
remaining binding at 10 µM (IRAK4): 100%
remaining binding at 10 µM (MARK3): 68%
remaining binding at 10 µM (FAK): 84%
remaining binding at 10 µM (ZAK): 1.5%
remaining binding at 10 µM (NEK11): 96%
remaining binding at 10 µM (BTK): 100%
remaining binding at 10 µM (SGK2): 78%
remaining binding at 10 µM (DCAMKL2): 100%
remaining binding at 10 µM (DMPK2): 50%
remaining binding at 10 µM (TNK2): 37%
remaining binding at 10 µM (ERK5): 70%
